Test results published in US20090136468A1, “PERI-OPERATIVE COMPOSITION COMPRISING LACTOBACILLUS RHAMNOSUS” (N.V. NUTRICIA, priority 2004, published 2009).

Experiments:
[1] = system: L. rhamnosus GG (ATCC 53103); assay: MIC by serial dilution of antibiotics in MRS broth; type: cell-based, Lactobacillus rhamnosus; conditions: 24 hours at 37° C.
Experimental: (§1) The Minimal inhibitory concentration (MIC) was determined by serial dilution of the tested antibiotics in MRS broth (Oxoid) and inoculate the broth with the probiotic strain to be tested.
(§2) Strains of Lactobacilli were cultured for 24 hours in MRS-broth at 37° C. and under aerobic conditions. A dilution series of the 24 hours-culture in MRS-broth was prepared (dilution factor 10, from 10^−1 to 1^−10). The dilution series were cultured overnight (i.e. 16 h) at 37° C. under aerobic conditions. The highest dilution in which still growth was observed was selected to inoculate a 96-wells plate. The culture was centrifuge for 10 min at 3800 rpm and 4° C. and resuspended in the same volume of PBS (4° C.). The Lactobacilli were counted under a microscope and the solution was diluted in cold PBS to obtain a concentration of 1*10^8 cells/ml.
(§3) Wells of a 96-wells plate were filled with MRS broth and with antibiotics in varying dilution to a total volume of 95 μl. As a control, no antibiotics were added. The following final dilutions of antibiotics were tested:
(§4) bacitracin, colistin, nystatin, polymixin B, vancomycin: 1000, 500, 250, 125, 62.5 ug/ml erythromycin, kanamycin, neomycm: 100, 50, 25, 12.5, 6.25 ug/ml ampicillin, chloramphenicol, lincomycin, penicillin, streptomycin, tetracyclin: 10, 5, 2.5, 1.25, 0.625 ug/ml
(§5) The plates were incubated for 24 hours at 37° C. in a SpectaMAX plate reader (shaking every 10 minutes for 20 seconds) and the optical density was determined at 600 nm.

L. rhamnosus LMG P-22799 = assay: MIC by serial dilution of antibiotics in MRS broth; type: cell-based, Lactobacillus rhamnosus; conditions: 24 hours at 37° C.
Experimental: as §1, §2, §3, §4, §5

[2] = system: 131 strains of Lactobacillus rhamnosus; assay: Broth micro dilution test, MIC distribution; type: cell-based; conditions: 131 L. rhamnosus strains, LSM broth, 37° C.
Experimental: (§6) The inocula of 131 strains of Lactobacillus rhamnosus species are prepared by suspending several freshly cultivated single colonies in a tube with 5 ml of saline up to an optical density of McFarland standard No. 0.5. The corresponding colonies are picked up from MRS (de Man, Rogosa, Sharpe) agar plates on which the strains grew for 48 h at 37° C. and at 5% CO2 atmosphere. Subsequently, this suspension is diluted 1:10 by transferring 4 ml of the McFarland No. 0.5 suspension into a suitable inoculum container with 36 ml of saline and subsequent careful mixing. The MIC microtiter test plates (95 wels with different concentrations of the test antibiotics and one wel for the growth control without any antibiotic) were prepared before. Nutrient medium: LSM (lactobacilli susceptibility test medium) broth consisting of 90% Iso-sensitest broth plus 10% MRS broth (pH 6.7). The inoculations of the pre-made MIC test plates are performed by a multipoint inoculator (final inoculum of these LAB in the microtiter plate: about 10^5 bacteria ml^−1). The plates are subsequently incubated in ambient air or in a 5% CO2 atmosphere at 37° C. for 24 (−48) h. Then the MICs are read as the lowest concentration in the increasing concentration row of the corresponding antibiotic in which no growth of the test organism was observed. The control attempt (without antibiotic) of the corresponding strain tested has to show sufficient growth.

[3] = system: our preferred Lb. rhamnosus (LMG P-22799); assay: Broth micro dilution test, MIC; type: cell-based, Lactobacillus rhamnosus
Experimental: as §6
(§7) In a large study comprising 131 different Lb. rhamosus strains the sensitivity for antibiotics was tested. In table 6 the number of strains falling within a certain dilution factor are shown. Clearly there are large differences in antibiotic sensitivity within the Lb. rhamnosus group. The more sensitive to these antibiotics, the better and together with the other parameters, such as the inhibition of adhesion of pathogens to intestinal epithelial cells is used to select the most appropriate Lb. rhamnosus. […]

Lb. rhamnosus GG = assay: Broth micro dilution test, MIC; type: cell-based, Lactobacillus rhamnosus; conditions: Lacticaseibacillus rhamnosus, unit from Table 6, read-out: MIC against Lb. rhamnosus GG
Experimental: as §6, §7

Row | Antibiotic sensitivity (expressed as MIC) of L. rhamnosus GG (ATTC 53103) [1] | Antibiotic sensitivity (expressed as MIC) of L. rhamnosus LMG P-22799 (L. rhamnosus LMG P-22799) | Number of strains with a MIC of 0.5 μg/ml [2] | Number of strains with a MIC of 1.0 μg/ml [2] | Number of strains with a MIC of 2.0 μg/ml [2] | Number of strains with a MIC of 4.0 μg/ml [2] | Compound | other results
1 | >10 µg/mL | 5 µg/mL |  |  |  |  | [H]/N=C(/N)N[C@H]1[C@H](O)[C@@H](O)[C@H](O[C@@H]2O[C@@H](C)[C@](O)(C=O)[C@H]2O[C@@H]2O[C@@H](CO)[C@H](O)[C@@H](O)[C@@H]2NC)[C@@H](N/C(N)=N\[H])[C@@H]1O [Streptomycin, streptomycin] | 
2 |  |  |  |  | 37 | 52 | [H]/N=C(/N)N[C@H]1[C@H](O)[C@@H](O)[C@H](O[C@@H]2O[C@@H](C)[C@](O)(C=O)[C@H]2O[C@@H]2O[C@@H](CO)[C@H](O)[C@@H](O)[C@@H]2NC)[C@@H](N/C(N)=N\[H])[C@@H]1O [STR] | Number of strains with a MIC of 8.0 μg/ml [2]: 21
3 | 10 µg/mL | 5 µg/mL |  |  |  |  | CCC[C@@H]1C[C@@H](C(=O)N[C@@H]([C@H]2O[C@H](SC)[C@H](O)[C@@H](O)[C@H]2O)[C@@H](C)O)N(C)C1 [Lincomycin, lincomycin] | 
4 | >10 µg/mL | 2.5 µg/mL | 52 | 62 | 12 | 2 | CC1(C)S[C@@H]2[C@H](NC(=O)[C@H](N)c3ccccc3)C(=O)N2[C@H]1C(=O)O [Ampicillin, ampicillin] | Number of strains with a MIC of 0.25 μg/ml [2]: 3; AMP sensitivity ratio LGG/LMG P-22799 [3]: 2-4; MIC ([3]; Lacticaseibacillus rhamnosus, unit from Table 6, read-out: MIC against our preferred Lb. rhamnosus): ≤ 0.5 µg/mL; MIC (Lb. rhamnosus GG): ≥ 1 µg/mL

Continued, compound first:

Row | Compound | Antibiotic sensitivity (expressed as MIC) of L. rhamnosus GG (ATTC 53103) [1] | Antibiotic sensitivity (expressed as MIC) of L. rhamnosus LMG P-22799 (L. rhamnosus LMG P-22799) | Number of strains with a MIC of 0.5 μg/ml [2] | Number of strains with a MIC of 1.0 μg/ml [2] | Number of strains with a MIC of 2.0 μg/ml [2] | Number of strains with a MIC of 4.0 μg/ml [2] | other results
5 | O=C(N[C@H](CO)[C@H](O)c1ccc([N+](=O)[O-])cc1)C(Cl)Cl [Chloramphenicol, chloramphenicol] | >10 µg/mL | 5 µg/mL |  |  |  |  | 
6 | O=C(N[C@H](CO)[C@H](O)c1ccc([N+](=O)[O-])cc1)C(Cl)Cl [CMP] |  |  | 1 | 10 | 88 | 31 | Number of strains with a MIC of 8.0 μg/ml [2]: 1
7 | CC[C@H]1OC(=O)[C@H](C)[C@@H](O[C@H]2C[C@@](C)(OC)[C@@H](O)[C@H](C)O2)[C@H](C)[C@@H](O[C@@H]2O[C@H](C)C[C@H](N(C)C)[C@H]2O)[C@](C)(O)C[C@@H](C)C(=O)[C@H](C)[C@@H](O)[C@]1(C)O [Erythromycin, erythromycin] | >100 µg/mL | 50 µg/mL |  |  |  |  | 
8 | penicillin |  |  | 28 | 11 | 7 |  | Number of strains with a MIC of 0.125 μg/ml [2]: 9; Number of strains with a MIC of 0.25 μg/ml [2]: 76
9 | CN(C)[C@@H]1C(=O)C(C(N)=O)=C(O)[C@@]2(O)C(=O)C3=C(O)c4c(O)cccc4[C@@](C)(O)[C@H]3C[C@@H]12 [Tetracyclin, tetracyclin] | 10 µg/mL | 2.5 µg/mL |  |  |  |  | 
